From the NIST ThermoML archive (doi:10.1016/j.jct.2012.11.032)

Test: xn = mol fraction of the nth substance listed
Details: 101 kPa, Liquid; for speed of sound: Sing-around technique in a fixed-path interferometer; for mass density: Vibrating tube method

CCCCCCCCCCn1cc[n+](C)c1.[Cl-] [1-decyl-3-methylimidazolium chloride] + O
Details | mass density [kg/m3] | speed of sound [m/s]
283 K, x1 = 0.000105 | 999.733 | 1449.9
283 K, x1 = 0.000185 | 999.76 | 1451.1
283 K, x1 = 0.000277 | 999.776 | 1452.4
283 K, x1 = 0.000377 | 999.82 | 1453.9
283 K, x1 = 0.000452 | 999.839 | 1454.6
283 K, x1 = 0.000546 | 999.878 | 1455.8
283 K, x1 = 0.000728 | 999.945 | 1458.5
283 K, x1 = 0.000836 | 999.997 | 1460.3
283 K, x1 = 0.001002 | 1000.05 | 1462.6
283 K, x1 = 0.001099 | 1000.05 | 1463.7
283 K, x1 = 0.00118 | 1000.1 | 1464.7
283 K, x1 = 0.001259 | 1000.11 | 1465
283 K, x1 = 0.001351 | 1000.13 | 1465.9
283 K, x1 = 0.001452 | 1000.14 | 1466.5
283 K, x1 = 0.001539 | 1000.14 | 1467.1
283 K, x1 = 0.001631 | 1000.14 | 1467.9
283 K, x1 = 0.001869 | 1000.13 | 1468.9
283 K, x1 = 0.001988 | 1000.13 | 1469.3
288 K, x1 = 0.000105 | 999.142 | 1467.8
288 K, x1 = 0.000185 | 999.164 | 1468.9
288 K, x1 = 0.000277 | 999.176 | 1470.2
288 K, x1 = 0.000377 | 999.206 | 1471.5
288 K, x1 = 0.000452 | 999.216 | 1472.4
288 K, x1 = 0.000546 | 999.247 | 1473.5
288 K, x1 = 0.000728 | 999.3 | 1476
288 K, x1 = 0.000836 | 999.347 | 1477.5
288 K, x1 = 0.001002 | 999.38 | 1479.5
288 K, x1 = 0.001099 | 999.375 | 1480.5
288 K, x1 = 0.00118 | 999.412 | 1481.3
288 K, x1 = 0.001259 | 999.417 | 1481.7
288 K, x1 = 0.001351 | 999.423 | 1482.5
288 K, x1 = 0.001452 | 999.42 | 1483
288 K, x1 = 0.001539 | 999.421 | 1483.4
288 K, x1 = 0.001631 | 999.412 | 1483.9
288 K, x1 = 0.001869 | 999.393 | 1484.8
288 K, x1 = 0.001988 | 999.38 | 1485.2
293 K, x1 = 0.000105 | 998.25 | 1483.9
293 K, x1 = 0.000185 | 998.269 | 1484.9
293 K, x1 = 0.000277 | 998.279 | 1486
293 K, x1 = 0.000377 | 998.297 | 1487.2
293 K, x1 = 0.000452 | 998.301 | 1488.1
293 K, x1 = 0.000546 | 998.325 | 1489.2
293 K, x1 = 0.000728 | 998.361 | 1491.4
293 K, x1 = 0.000836 | 998.402 | 1492.8
293 K, x1 = 0.001002 | 998.424 | 1494.6
293 K, x1 = 0.001099 | 998.408 | 1495.4
293 K, x1 = 0.00118 | 998.437 | 1496.1
293 K, x1 = 0.001259 | 998.436 | 1496.5
293 K, x1 = 0.001351 | 998.434 | 1497.1
293 K, x1 = 0.001452 | 998.423 | 1497.6
293 K, x1 = 0.001539 | 998.415 | 1497.9
293 K, x1 = 0.001631 | 998.403 | 1498.3
293 K, x1 = 0.001869 | 998.372 | 1499
293 K, x1 = 0.001988 | 998.354 | 1499.4
298 K, x1 = 0.000105 | 997.096 | 1498
298 K, x1 = 0.000185 | 997.108 | 1498.9
298 K, x1 = 0.000277 | 997.114 | 1500
298 K, x1 = 0.000377 | 997.124 | 1501.1
298 K, x1 = 0.000452 | 997.122 | 1501.8
298 K, x1 = 0.000546 | 997.141 | 1502.8
298 K, x1 = 0.000728 | 997.166 | 1504.9
298 K, x1 = 0.000836 | 997.199 | 1506.1
298 K, x1 = 0.001002 | 997.205 | 1507.7
298 K, x1 = 0.001099 | 997.182 | 1508.4
298 K, x1 = 0.00118 | 997.205 | 1509
298 K, x1 = 0.001259 | 997.199 | 1509.4
298 K, x1 = 0.001351 | 997.192 | 1509.9
298 K, x1 = 0.001452 | 997.175 | 1510.3
298 K, x1 = 0.001539 | 997.164 | 1510.6
298 K, x1 = 0.001631 | 997.146 | 1510.9
298 K, x1 = 0.001869 | 997.078 | 1511.5
298 K, x1 = 0.001988 | 997.079 | 1511.8
303 K, x1 = 0.000105 | 995.704 | 1510.3
303 K, x1 = 0.000185 | 995.706 | 1511.1
303 K, x1 = 0.000277 | 995.707 | 1512.1
303 K, x1 = 0.000377 | 995.711 | 1513.1
303 K, x1 = 0.000452 | 995.705 | 1513.8
303 K, x1 = 0.000546 | 995.718 | 1514.7
303 K, x1 = 0.000728 | 995.732 | 1516.6
303 K, x1 = 0.000836 | 995.759 | 1517.7
303 K, x1 = 0.001002 | 995.75 | 1519.2
303 K, x1 = 0.001099 | 995.72 | 1519.7
303 K, x1 = 0.00118 | 995.739 | 1520.3
303 K, x1 = 0.001259 | 995.728 | 1520.6
303 K, x1 = 0.001351 | 995.715 | 1521
303 K, x1 = 0.001452 | 995.694 | 1521.5
303 K, x1 = 0.001539 | 995.683 | 1521.6
303 K, x1 = 0.001631 | 995.659 | 1521.9
303 K, x1 = 0.001869 | 995.549 | 1522.4
303 K, x1 = 0.001988 | 995.574 | 1522.6
308 K, x1 = 0.000105 | 994.091 | 1520.9
308 K, x1 = 0.000185 | 994.084 | 1521.6
308 K, x1 = 0.000277 | 994.08 | 1522.5
308 K, x1 = 0.000377 | 994.079 | 1523.4
308 K, x1 = 0.000452 | 994.068 | 1524.1
308 K, x1 = 0.000546 | 994.074 | 1524.9
308 K, x1 = 0.000728 | 994.082 | 1526.7
308 K, x1 = 0.000836 | 994.1 | 1527.7
308 K, x1 = 0.001002 | 994.083 | 1528.9
308 K, x1 = 0.001099 | 994.044 | 1529.4
308 K, x1 = 0.00118 | 994.057 | 1529.9
308 K, x1 = 0.001259 | 994.044 | 1530.2
308 K, x1 = 0.001351 | 994.028 | 1530.5
308 K, x1 = 0.001452 | 994.006 | 1531
308 K, x1 = 0.001539 | 993.985 | 1531.1
308 K, x1 = 0.001631 | 993.962 | 1531.3
308 K, x1 = 0.001869 | 993.807 | 1531.7
308 K, x1 = 0.001988 | 993.859 | 1531.9
313 K, x1 = 0.000105 | 992.269 | 1529.9
313 K, x1 = 0.000185 | 992.257 | 1530.5
313 K, x1 = 0.000277 | 992.252 | 1531.4
313 K, x1 = 0.000377 | 992.242 | 1532.2
313 K, x1 = 0.000452 | 992.229 | 1532.8
313 K, x1 = 0.000546 | 992.227 | 1533.5
313 K, x1 = 0.000728 | 992.229 | 1535.1
313 K, x1 = 0.000836 | 992.239 | 1536
313 K, x1 = 0.001002 | 992.214 | 1537.2
313 K, x1 = 0.001099 | 992.17 | 1537.6
313 K, x1 = 0.00118 | 992.176 | 1538
313 K, x1 = 0.001259 | 992.167 | 1538.3
313 K, x1 = 0.001351 | 992.142 | 1538.6
313 K, x1 = 0.001452 | 992.118 | 1539
313 K, x1 = 0.001539 | 992.095 | 1539
313 K, x1 = 0.001631 | 992.066 | 1539.2
313 K, x1 = 0.001869 | 991.864 | 1539.5
313 K, x1 = 0.001988 | 991.947 | 1539.7
